Like-named read-outs stand apart in the source and are kept apart here.

Data set [1] concerns normal liver cells immortalized MIHA. In words: MTT cytotoxicity assay on normal liver cells immortalized MIHA. The settings on record: for Survival rate (%): MTT, 72 h. Type of data set: cell-based, human. How it is done:
The cytotoxicity of Compound A to normal liver cells immortalized MIHA is tested with MTT assay.
For MTT assay, 10 μL MTT solution is added into each well of a 96-well plate. After 2 h incubation at 37° C., 100 μL 10% SDS solution with 10 mM HCl is added to dissolve the purple crystals. After 24 h incubation, the optical density (OD) readings at 595 nm are measured using a Perkin-Elmer Victor plate reader. The values of IC50 are determined using the method described in the cited literatures with some modifications. To determine the IC50 value of a compound in a cell line, the growth inhibitory effect of Compound A at different concentrations is measured by MTT assay. For each tested concentration, 3000 cells suspended in 100 μL culture medium are seeded in each well of a 96-well plate. The well containing 100 μL culture medium without cells is used as a blank. After an overnight culture, Compound A at the designed concentration is added. The OD values of the control group at 0 h (C0) and 72 h (C72) together with the compound treated groups at 72 h (T72) from the MTT assay are measured using the Perkin-Elmer Victor plate reader. The survival rates are calculated using the formula (T72−C0)/(C72−C0)×100%. The inhibition rates are calculated using the following formula [1−(T72−C0)/(C72−C0)]×100% and plotted against logarithmic concentrations by sigmoidal fit. IC50 is defined as the concentration of a compound inhibiting 50% of cell growth. Each IC50 test is performed in triplicate and repeated at least three times.
For orientation: Tetrazolium dyes change colour on reduction, which living cells bring about.

Another data set relates to HepG2. Description: MTT cell viability assay, HepG2. The format is cell-based. Conditions: Homo sapiens; for IC50: HepG2, MTT. The source says:
(§1) Curcumin and paclitaxel are used as the positive control.

Another data set deals with AGS. Description: MTT cell viability assay, AGS. The settings on record: Homo sapiens, 72 h, read-out: Cytotoxicity Data IC50 (μM).
The test system of the next data set is U87. Description: MTT cell viability assay, U87. Conditions: Homo sapiens, U-87 MG, 72 h, read-out: Cytotoxicity Data IC50 (μM).
Another data set concerns MDA-MB-231. In words: MTT cell viability assay, MDA-MB-231. The format is cell-based. The settings on record: Homo sapiens; MDA-MB-231, MTT, 72 h; read-out: Cytotoxicity Data IC50.
Excerpt: as §1

Method for AGS: (§2) All test samples are dissolved in dimethyl sulfoxide (DMSO) to make stock solutions and further diluted in culture medium upon assay. Human cancer cell lines including U87, MDA-MB-231, AGS and HepG2 are cultured in RPMI 1640 or DMEM or DMEM/F12 medium, containing 10% fetal bovine serum. All cell lines are maintained at 37° C. in a humidified environment containing 5% CO2. To determine the effects of the compounds on cell viability, cell number is quantified using a standard colorimetric MTT assay. Cells are placed in a 96-well plate (5×10^3 cells/well) and allowed to attach overnight. Cells are treated with 5, 10, 20, 40 μM of each compound in culture medium for 72 h, respectively. Then, culture media are added with 20 μL of MTT (5 mg/mL stock in PBS) per well and incubated for 4 h at 37° C. Finally, culture media are discarded and 150 μL of DMSO is added to each well to dissolve the purple formazan crystals. Absorbance of the solution is measured using microplate reader spectrophotometer (Bio-Rad Laboratories, Inc., Hercules, Calif.), at a wavelength of 490 nm. Absorbance of untreated cells in medium (negative control) is 100%. Curcumin and paclitaxel are used as the positive control.
Method for U87: as §2

Turning to `COc1c(O)c(O)c2c(=O)c3c(CC=C(C)C)c(CC=C(C)C)c(O)c(O)c3oc2c1CC=C(C)C` [Compound A, 1,2,5,6-tetrahydroxy-3-methoxy-4,7,8-tri(3-methylbut-2-enyl)-xanthone], the “Survival rate (%)” value in data set [1] (compound A 5 μg/mL) is recorded as 101.7881%; in data set [1] (compound A 10 μg/mL), 85.45%; in data set [1] (compound A 20 μg/mL), 85.89%; in data set [1] (compound A 40 μg/mL), 68.01%. Besides, the “half toxic concentration TC50” value in data set [1] (from survival rate curve (FIG. 1)) is above 40 µg/mL. Besides, the “toxicity on normal cells” value in data set [1] (result in words) is “low toxicity”. In the data set with HepG2 (read-out: IC50 on HepG2 cells growth), the IC50 (usually the midpoint of a concentration-inhibition curve) amounted to 5.3 µg/mL. In the data set with HepG2 (HepG2, compound A 0.8 μg/mL, MTT, read-out: Inhibition rate %), the inhibition – broadly, the change of the read-out against control, counted positive when it falls – at 0.8 µg/mL came to 7.79%. In addition, in the data set with HepG2 (HepG2, compound A 1.6 μg/mL, MTT, read-out: Inhibition rate %), the inhibition at 1.6 µg/mL is 8.16%. In addition, the inhibition at 3.125 µg/mL in the data set with HepG2 (HepG2, compound A 3.125 μg/mL, MTT, read-out: Inhibition rate %) was 15%. In the data set with HepG2 (HepG2, compound A 6.25 μg/mL, MTT, read-out: Inhibition rate %), the inhibition at 6.25 µg/mL was determined as 59.2%. Moreover, the inhibition at 12.5 µg/mL in the data set on HepG2 (HepG2, compound A 12.5 μg/mL, MTT, read-out: Inhibition rate %) was found to be 75.6%. Moreover, the inhibition at 25 µg/mL with HepG2 (HepG2, compound A 25 μg/mL, MTT, read-out: Inhibition rate %) was determined as 76.6%. The inhibition at 50 µg/mL in the data set on HepG2 (HepG2, compound A 50 μg/mL, MTT, read-out: Inhibition rate %) turned out to be 69.3%. Besides, the inhibition at 100 µg/mL in the data set on HepG2 (HepG2, compound A 100 μg/mL, MTT, read-out: Inhibition rate %) came to 74.3%.
Turning to `COc1c(OC)c(O)c2c(=O)c3c(CC=C(C)C)c(CC=C(C)C)c(O)c(O)c3oc2c1CC=C(C)C` [Compound B], the concentration for half-maximal inhibition (IC50) in the data set with AGS was 31.1 µM; in the data set with U87, 55.3 µM; with MDA-MB-231 it was 70.5 µM; with HepG2 (72 h, read-out: Cytotoxicity Data IC50), 20.3 µM.
As to `COc1cc(/C=C/C(=O)CC(=O)/C=C/c2ccc(O)c(OC)c2)ccc1O` [Curcumin], the IC50 with AGS was found to be 4.38 µM; with U87 it was 20.8 µM; in the data set with MDA-MB-231, 3.76 µM.
Turning to `CC(=O)O[C@H]1C(=O)[C@@]2(C)[C@H]([C@H](OC(=O)c3ccccc3)[C@]3(O)C[C@H](OC(=O)[C@H](O)[C@@H](NC(=O)c4ccccc4)c4ccccc4)C(C)=C1C3(C)C)[C@]1(OC(C)=O)CO[C@@H]1C[C@@H]2O` [Paclitaxel], the concentration for half-maximal inhibition (IC50) in the data set with AGS was found to be 23.1 µM; in the data set with U87, 285 µM.

The values above are taken from patent publication US20140235877A1, “COMPOUNDS, METHODS OF PREPARATION AND USE THEREOF FOR TREATING CANCER” (Hong Kong Baptist University, priority 2013, published 2014).
